Values of other authors, collected in EP4512398A1, “FLURALANER FOR USE IN METHODS OF TREATMENT AND PREVENTION OF SEA LICE INFESTATION IN FISH” (Bimeda Animal Health Limited, priority 2023, dated 2025).

Test system: parasites with resistance to organophosphates, pyrethroids and carbamates
Details: bio-assays, background statement; cited from earlier work

Cc1cc(C2=NOC(c3cc(Cl)cc(Cl)c3)(C(F)(F)F)C2)ccc1C(=O)NCC(=O)NCC(F)(F)F (stereo not shown) [fluralaner, Fluralaner]
efficacy against parasites with resistance to organophosphates, pyrethroids and carbamates: effective
